Source: patent publication US20230149418A1, “METHODS AND SYNERGIC COMPOSITIONS FOR TREATING VIRAL INFECTIONS” (HADASIT MEDICAL RESEARCH SERVICES AND DEVELOPMENT LTD., priority 2018, published 2023)
Like-named read-outs stand apart in the source and are kept apart here.

Columns and labels:
HCMV = assay: Ex vivo HCMV infection of human decidual (placental) tissue organ cultures, viral mRNA copy number; assay type: cell-based, human cytomegalovirus; conditions: for EC50: Human betaherpesvirus 5; for Dose of drug alone at Fa 0.9: Fa 0.9, drug alone; for DRI (dose reduction index): combination artemisone + maribavir
Method: Organ cultures were washed and stored at -80° C. until assayed. RNA was extracted, and the purified RNA samples were subjected to reverse transcription (RT), followed by quantitative real-time PCR. The viral mRNA copy number was normalized by the cellular housekeeping gene β-actin.
We employed our model of HCMV infection in human decidual tissues (representing the maternal aspect of the chimeric human placenta), maintained as multi-cell-type 3D organ cultures as described in Weisblum Y. et al. J Virol 2011 85(24): 13204-13. doi: 10.1128/JVI.05749-11. For infection of the organ cultures, decidual tissues were placed in 48-well plates and inoculated with the virus (5x10^4 plaque forming units (PFU)/well) for 12 h to allow effective viral adsorption. The tissues were further monitored for viral infection and spread for 7 days. For determination of the drug EC50 values of in the tissues, serial drug concentrations: each drug separately or combination of the drugs were added to the infected decidual tissues during viral adsorption at any further medium replacement to keep the drug concentration constant. The results were compared to samples to which the drug was not added. The EC50 was defined as the drug concentration required to reduce the viral mRNA copy number by 50%. The effect of drug combinations was tested in accordance with the Chou-Talalay method. All comparative experiments were performed in parallel on tissues from the same donor.
The dose reduction index (DRI) was then calculated as described in Chou. As described earlier, the DRI is a measure of how many folds the dose of each drug in a synergistic combination may be reduced at a given effect level compared with the doses of each drug alone. For each one of the below tables: Fa - fraction of virus affected; doses are provided in µm.

[1] = preclinical in vitro and in vivo screens; cited from earlier work

CC1CCC2[C@@H](C)[C@H](N3CCS(=O)(=O)CC3)OC3O[C@]4(C)CCC1C32OO4 (stereo in doubt) [artemisone]
EC50 (HCMV; ex vivo, Fa 0.5, drug alone, read-out: Dose of drug alone at Fa 0.5): 425 nM
EC50 (HCMV; sole drug, ex vivo decidual tissues, read-out: EC50 (concentration required to reduce the viral mRNA copy number by 50%)): 500 nM
Dose of drug alone at Fa 0.05 (HCMV; ex vivo, Fa 0.05, drug alone): 0.00699 µm
Dose of drug alone at Fa 0.75 (HCMV; ex vivo, Fa 0.75, drug alone): 1.965 µm
Dose of drug alone at Fa 0.9 (HCMV; ex vivo): 9.1 µm
Dose of drug alone at Fa 0.9 (HCMV; ex vivo, listed as Art): 9.098 µm
Dose of drug alone at Fa 0.95 (HCMV; ex vivo, Fa 0.95, drug alone): 25.7963 µm
Dose of drug alone at Fa 0.97 (HCMV; ex vivo, Fa 0.97, drug alone): 54.1517 µm
DRI (dose reduction index) (HCMV; ex vivo, Fa 0.05): 0.1239
DRI (dose reduction index) (HCMV; ex vivo, Fa 0.5): 1.12
DRI (dose reduction index) (HCMV; ex vivo, Fa 0.75): 2.546
DRI (dose reduction index) (HCMV; ex vivo, Fa 0.9): 5.8
DRI (dose reduction index) (HCMV; ex vivo, Fa 0.9, listed as Art): 5.789
DRI (dose reduction index) (HCMV; ex vivo, Fa 0.95, listed as Art): 10.1210
DRI (dose reduction index) (HCMV; ex vivo, Fa 0.97): 15.0614
Neurotoxicity [1]: does not elicit neurotoxicity
